The results in this text go back to BindingDB's records for doi:10.1016/S0960-894X(01)80292-4 (1994).

Assay [1] addresses T1, Human immunodeficiency virus type 1 protease (Human immunodeficiency virus 1, UniProt Q72874). Briefly: (§1) Inhibitory activity was evaluated against HIV-1 protease.
Assay [2] has as its target T1, Human immunodeficiency virus type 1 protease. The description is as §1. The source holds these as a separate data set.

pIC50: −log10 of the molar value.

The pIC50 is −log10 of the IC50, conventionally taken in molar units. A high value points to a low IC50.

Take `OC1N=C(Cc2ccccc2)P(O)(O)=C(Cc2ccccc2)N1` (configuration not stated) [4,6-Dibenzyl-5-hydroxy-5-oxo-5lambda*5*-[1,3,5]diazaphosphinan-2-one]: the pIC50 in assay [1] and in assay [2] was less than 4.00 in each case.
